We go through one compound from article PMC12756723, “Derivatives of the Cashew Nut Shell Liquid as Ligands of Pseudomonas aeruginosa Phenazine Protein D (PaPhzD)” (ACS Omega, 2025).

Experiment [1] concerns human PPAR isoforms. Details: method as in Sahin et al. 2022 (likely, number not given). To be noted: previously investigated; ref Sahin et al. 2022 (likely, number not given); cited from earlier work.
Experiment [2] addresses T1, PaPhzD (Pseudomonas aeruginosa, UniProt P0DPB9).
T1 construct: inferred from Ni-NTA purification with imidazole elution; made in house; host or cells: E. coli BL21(DE3)
In words: Thermal shift assay (TSA) with SYPRO Orange. The format is binding. How it is done:
Thermal shift assays were performed on an Applied Biosystems 7500 RT-PCR (Applied Biosystems, Foster City, CA USA). All experiments were carried out in triplicate with 1 °C per minute increments in temperatures that range from 25 to 85 °C in 96-well PCR plates (PCR plates 96-well, BioRad), sealed with transparent capping strips (Flatcap strips, BioRad). The fluorescence of SYPRO Orange (Invitrogen S6650) was monitored (excitation wavelength, 492 nm; emission wavelength, 610 nm). Before the compounds’ screening, protein and DMSO concentrations were evaluated to improve PaPhzD stability throughout the assay.
The protein concentration required for an optimal signal-to-noise ratio (>5-fold) was evaluated by analysis of the raw fluorescence curves at different PaPhzD concentrations (1–5 μM). Then, the effect of DMSO (0–10%) over PaPhzD T m was evaluated at the optimal protein concentration. Fluorescence raw data were recorded using Applied Biosystems 7500 Software v2.0 and then processed with NAMI software to calculate T m values by the first-derivative method.
LDT compounds were screened at a final concentration of 50 μM. Briefly, 1 μL of each compound (1 mM DMSO stock solution) was added to a mixed solution containing 5 μM PaPhzD diluted in 50 mM Tris–HCl buffer (pH 8.0) containing 100 mM NaCl, 1 mM DTT, and SYPRO Orange dye (Invitrogen S6650) (1:100 dilution). Each compound was assayed in triplicate, and ΔT m values were calculated by comparison to reference wells that had 1 μL DMSO instead of the LDT compounds. Differences between T m values (ΔT m) were considered statistically significant when p < 0.01, according to the one-way ANOVA followed by Dunnett’s post-test for multiple comparisons, available in GraphPad Prism 9.0 software (GraphPad Software, San Diego, CA, USA, www.graphpad.com).
Compounds with ΔT m values statistically different from the reference were also assayed at different concentrations (ranging from 6.25 to 100 μM) to evaluate the concentration–response behavior. The ΔT m versus concentration plots were generated using the nonlinear regression method available in GraphPad Prism version 9.0.

The test system of experiment [3] is P. aeruginosa cells (ATCC 27853). In words: Bacterial growth (OD600) in the PYO screening culture. The format is cell-based, Pseudomonas aeruginosa. Particulars: 100 μM. As to the method: The potential inhibitors, previously solubilized in DMSO, were added to the culture medium after the inoculation (final concentration = 100 μM). The control group was cultured in the presence of an equivalent volume of DMSO but without the presence of potential inhibitors. The cell suspension was maintained at 30 °C under constant agitation (180 rpm) for 24 h in a 24-well plate. After this period, the OD600 was measured to evaluate bacterial growth, and in parallel, after being subjected to centrifugation, the supernatant was read in a 96-well plate at a wavelength of 691 nm. The sterile medium used for culturing the microorganism was used as a positive control, and culture medium containing 1% DMSO was used as a negative control.

“Also recorded” adds a separate entry of the source.

T1 sequence (P0DPB9 whole entry): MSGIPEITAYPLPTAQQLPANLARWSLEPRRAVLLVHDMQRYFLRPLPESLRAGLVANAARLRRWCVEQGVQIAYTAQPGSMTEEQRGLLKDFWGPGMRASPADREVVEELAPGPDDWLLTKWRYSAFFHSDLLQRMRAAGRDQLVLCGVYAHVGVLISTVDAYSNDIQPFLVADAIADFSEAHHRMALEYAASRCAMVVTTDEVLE

For `CCCCCCCCCCCCCCCc1cccc(O)c1` [Compound 2], the PPAR activity profile entry in experiment [1] was “do not activate PPAR receptors”. The “ΔTm of PaPhzD” value in experiment [2] (50 μM compound, 5 μM PaPhzD, vs DMSO reference) is −3.8 °C. Moreover, in experiment [2] (6.25 to 100 μM), the “Concentration–response behavior of ΔTm” value is “clear concentration–response behavior”. Also, in experiment [3], the “Effect on bacterial growth” value is recorded as “without affecting bacterial growth; also recorded: no significant effect on bacterial growth”.
